Data taken from ChEMBL document CHEMBL5329195, “Identification of novel glucocerebrosidase chaperones by unexpected skeletal rearrangement reaction” (Bioorg Med Chem Lett, 2023).
Active and inactive are the calls of the source. No cut-off for these calls is given here.

Columns and labels:
[1] = system: T1, Lysosomal acid glucosylceramidase (Homo sapiens), P04062 [N409S]; assay: Inhibition of GCase N370S GBA mutant in patient derived fibroblast cells using 4-methylumbelliferyl-beta-D-glucopyranoside as substrate incubated for 5 days by fluorescence based analysis relative to control; type: cell-based; conditions: time 5.0 day
T1 sequence (whole entry): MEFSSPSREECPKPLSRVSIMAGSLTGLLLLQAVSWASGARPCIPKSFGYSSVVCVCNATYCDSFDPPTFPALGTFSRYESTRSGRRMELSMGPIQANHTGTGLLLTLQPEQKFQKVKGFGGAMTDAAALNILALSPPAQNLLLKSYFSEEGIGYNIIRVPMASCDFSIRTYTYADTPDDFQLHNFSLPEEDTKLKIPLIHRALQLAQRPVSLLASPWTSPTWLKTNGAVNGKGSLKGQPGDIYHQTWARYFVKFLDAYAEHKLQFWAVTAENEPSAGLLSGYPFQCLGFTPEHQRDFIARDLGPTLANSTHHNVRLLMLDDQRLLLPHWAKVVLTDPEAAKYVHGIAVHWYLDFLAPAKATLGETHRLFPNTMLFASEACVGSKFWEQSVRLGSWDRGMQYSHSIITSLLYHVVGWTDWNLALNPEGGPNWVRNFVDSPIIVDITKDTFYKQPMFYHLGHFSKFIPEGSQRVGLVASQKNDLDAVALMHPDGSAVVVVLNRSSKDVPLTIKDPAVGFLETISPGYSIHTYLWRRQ

[2] = target: T2, Lysosomal acid glucosylceramidase (Homo sapiens, UniProt P04062, N409S); assay: Chaperone activity at GCase N370S GBA mutant in patient derived fibroblast cells using 4-methylumbelliferyl-beta-D-glucopyranoside as substrate incubated for 5 days by fluorescence based analysis; type: cell-based
[3] = target: T2, Lysosomal acid glucosylceramidase; assay: Inhibition of GCase N370S GBA mutant in patient derived fibroblast cells using 4-methylumbelliferyl-beta-D-glucopyranoside as substrate incubated for 5 days by fluorescence based analysis; type: cell-based
[4] = system: T1, Lysosomal acid glucosylceramidase (Homo sapiens), P04062 [N409S]; assay: Chaperone activity at GCase N370S GBA mutant in patient derived fibroblast cells using 4-methylumbelliferyl-beta-D-glucopyranoside as substrate incubated for 5 days by fluorescence based analysis relative to control; type: cell-based; conditions: time 5.0 day
[5] = Stability of the compound in human liver microsomes assessed as intrinsic clearance; type: ADME, Microsome; conditions: read-out: CLH
[6] = Stability of the compound in mouse liver microsomes assessed as intrinsic clearance; type: ADME, Microsome; conditions: read-out: CLH
[7] = Solubility of the compound at pH 7.4; type: physicochemical; conditions: buffer
[8] = Solubility of the compound at pH 1.2; type: physicochemical; conditions: buffer
[9] = target: Voltage-gated inwardly rectifying potassium channel KCNH2 (Homo sapiens, UniProt Q12809); assay: Inhibition of human ERG; type: toxicity
Sequence of Voltage-gated inwardly rectifying potassium channel KCNH2 (Q12809 whole entry): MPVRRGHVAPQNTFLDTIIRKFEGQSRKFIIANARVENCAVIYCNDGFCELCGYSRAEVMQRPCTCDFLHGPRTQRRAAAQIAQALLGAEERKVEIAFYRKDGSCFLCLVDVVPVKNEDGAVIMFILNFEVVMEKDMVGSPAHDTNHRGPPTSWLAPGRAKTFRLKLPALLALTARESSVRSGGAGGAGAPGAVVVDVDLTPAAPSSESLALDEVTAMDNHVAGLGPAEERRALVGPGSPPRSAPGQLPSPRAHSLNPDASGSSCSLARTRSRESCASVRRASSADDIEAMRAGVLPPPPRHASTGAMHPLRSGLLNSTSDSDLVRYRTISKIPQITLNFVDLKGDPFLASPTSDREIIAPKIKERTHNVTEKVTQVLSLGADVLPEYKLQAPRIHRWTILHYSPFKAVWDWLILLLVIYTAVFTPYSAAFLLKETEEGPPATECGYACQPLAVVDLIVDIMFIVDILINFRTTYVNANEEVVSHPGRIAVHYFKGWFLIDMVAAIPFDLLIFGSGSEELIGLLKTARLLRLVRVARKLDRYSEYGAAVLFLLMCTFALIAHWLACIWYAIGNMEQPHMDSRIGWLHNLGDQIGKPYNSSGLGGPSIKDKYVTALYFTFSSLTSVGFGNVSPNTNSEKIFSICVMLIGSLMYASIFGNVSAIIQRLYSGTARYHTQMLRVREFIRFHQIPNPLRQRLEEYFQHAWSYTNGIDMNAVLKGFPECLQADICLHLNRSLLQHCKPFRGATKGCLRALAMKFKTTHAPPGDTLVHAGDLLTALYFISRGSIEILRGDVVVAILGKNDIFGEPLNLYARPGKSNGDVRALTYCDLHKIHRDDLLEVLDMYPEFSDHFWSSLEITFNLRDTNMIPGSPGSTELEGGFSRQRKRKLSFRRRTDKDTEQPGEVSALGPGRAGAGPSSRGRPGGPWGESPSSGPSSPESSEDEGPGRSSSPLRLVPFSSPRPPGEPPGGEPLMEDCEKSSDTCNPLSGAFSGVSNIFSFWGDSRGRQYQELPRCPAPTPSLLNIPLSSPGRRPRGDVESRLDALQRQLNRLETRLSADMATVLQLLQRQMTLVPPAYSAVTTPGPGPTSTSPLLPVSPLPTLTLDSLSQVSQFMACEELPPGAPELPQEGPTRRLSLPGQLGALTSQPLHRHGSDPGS

[10] = Stability of the compound in JPI fluid at pH 1.2; type: physicochemical; conditions: buffer
[11] = Stability of the compound in DMSO; type: physicochemical

Row | SMILES | EC50 ([2]; read-out: EC50) | Emax [4] | other results
1 | Cc1n[nH]c2c1[C@@H](O)[C@H](n1nnc3ccccc31)[C@@H](c1ccccc1Br)N2 (racemic) [listing 1 of 2 here] | 0.2 µM |  | 
2 | OC[C@H]1CNC[C@@H](O)[C@@H]1O |  | 103% | Emax [1]: 103%
3 | Cc1n[nH]c2c1[C@@H](O)[C@H](n1nnc3ccccc31)[C@@H](c1ccccc1Br)N2 [listing 2 of 2 here] |  | 170% | Emax [1]: 101%
4 | O[C@@H]1c2c(C3CCCC3)n[nH]c2N[C@H](c2ccccc2)[C@H]1n1nnc2ccccc21 (racemic) |  | inactive | EC50 ([2]; fibroblast): Not Active
5 | Cc1n[nH]c2c1[C@@H](O)[C@H](n1nnc3ccccc31)[C@@H](C1CCCC1)N2 (racemic) | 1.9 µM | 150% | 
6 | CCc1n[nH]c2c1[C@@H](O)[C@H](n1nnc3ccccc31)[C@@H](c1ccccc1Cl)N2 (racemic) | 0.48 µM | 191% | 
7 | Cc1n[nH]c2c1[C@@H](O)[C@H](n1nnc3ccccc31)[C@@H](C1CC1)N2 (racemic) |  | inactive | EC50 ([2]; fibroblast): Not Active
8 | Cc1ccc([C@H]2Nc3[nH]nc(C)c3[C@@H](O)[C@@H]2n2nnc3ccccc32)cc1 (racemic) | 1.1 µM | 157% | 
9 | Cc1n[nH]c2c1[C@@H](O)[C@H](n1nnc3ccccc31)[C@@H](c1ccccc1Br)N2 (racemic) [listing 2 of 2 here] |  | 164% | 
10 | Cc1n[nH]c2c1[C@@H](O)[C@H](n1nnc3ccccc31)[C@@H](c1ccc(Cl)cc1Cl)N2 (racemic) | 0.74 µM | 150% | 
11 | O[C@@H]1c2ccccc2N[C@H](c2ccccc2)[C@H]1n1nnc2ccccc21 (racemic) |  | inactive | EC50 ([2]; fibroblast): Not Active
12 | Cc1n[nH]c2c1[C@@H](O)[C@H](n1nnc3ccccc31)[C@@H](c1cccc(F)c1)N2 (racemic) | 1.2 µM | 137% | 
13 | Cc1n[nH]c2c1[C@@H](O)[C@H](n1nnc3ccccc31)[C@@H](C1CCCCCC1)N2 (racemic) | 0.23 µM | 170% | 
14 | Cc1n[nH]c2c1[C@@H](O)[C@H](n1nnc3ccccc31)[C@@H](c1ccccc1Cl)N2 (racemic) [listing 2 of 2 here] | 0.14 µM |  | 
15 | Cc1n[nH]c2c1[C@@H](O)[C@H](n1nnc3ccccc31)[C@@H](C1CCOCC1)N2 (racemic) | > 16 µM | > 65% | 
16 | CC(C)(C)c1n[nH]c2c1[C@@H](O)[C@H](n1nnc3ccccc31)[C@@H](c1ccccc1Cl)N2 (racemic) | 7.4 µM | 132% | 
17 | Cc1cccc([C@H]2Nc3[nH]nc(C)c3[C@@H](O)[C@@H]2n2nnc3ccccc32)c1Cl (racemic) | 0.15 µM | 147% | 
18 | Cc1n[nH]c2c1[C@@H](O)[C@H](n1nnc3ccccc31)[C@@H](c1ccc(F)cc1)N2 (racemic) | 2.2 µM | 61% | 
19 | Cc1cc2n(n1)C(O)[C@H](n1nnc3ccccc31)[C@@H](c1ccccc1)N2 (some centres not stated) | 5.6 µM |  | Stability [10]: Stable; Stability [11]: Stable
20 | Cc1n[nH]c2c1[C@@H](O)[C@H](n1nnc3ccccc31)[C@@H](c1ccccc1)N2 (racemic) [listing 1 of 2 here] | 1.4 µM |  | 
21 | Cc1n[nH]c2c1[C@@H](O)[C@H](n1nnc3ccccc31)[C@@H](c1ccccc1Cl)N2 [listing 2 of 2 here] | 0.076 µM |  | microsomal CLint [5]: 9.61 µL/min/mg; microsomal CLint [6]: 15.7 µL/min/mg; solubility [7]: > 100 µM; solubility [8]: > 100 µM; IC50 ([3]; read-out: IC50): 0.11 µM; IC50 [9]: > 25 µM
22 | Cc1n[nH]c2c1[C@@H](O)[C@H](n1nnc3ccccc31)[C@@H](C)N2 (racemic) |  | inactive | EC50 ([2]; fibroblast): Not Active
23 | O[C@@H]1c2cn[nH]c2N[C@H](c2ccccc2)[C@H]1n1nnc2ccccc21 (racemic) | > 16 µM | > 40% | 
24 | Cc1n[nH]c2c1[C@@H](O)[C@H](n1nnc3ccccc31)[C@@H](C1CCCCC1)N2 (racemic) | 0.37 µM | 180% | Emax [1]: 102%; IC50 ([3]; read-out: IC50): 0.65 µM

Second part, led by results:

Row | EC50 ([2]; read-out: EC50) | Emax [4] | SMILES | other results
25 | 0.083 µM | 172% | O[C@@H]1c2c(C3CC3)n[nH]c2N[C@H](c2ccccc2Cl)[C@H]1n1nnc2ccccc21 (racemic) | Emax [1]: 95%; IC50 ([3]; read-out: IC50): 0.074 µM
26 | 1.1 µM |  | Cc1n[nH]c2c1[C@@H](O)[C@H](n1nnc3ccccc31)[C@@H](c1ccccc1)N2 [listing 1 of 2 here] | microsomal CLint [5]: 5.01 µL/min/mg; microsomal CLint [6]: 9.88 µL/min/mg; solubility [7]: > 100 µM; solubility [8]: > 100 µM; IC50 ([3]; read-out: IC50): 3.2 µM
27 | 0.086 µM |  | Cc1n[nH]c2c1[C@@H](O)[C@H](n1nnc3ccccc31)[C@@H](c1ccccc1Br)N2 [listing 1 of 2 here] | microsomal CLint [5]: 22.7 µL/min/mg; microsomal CLint [6]: 31.4 µL/min/mg; solubility [7]: > 100 µM; solubility [8]: > 100 µM; IC50 ([3]; read-out: IC50): 0.33 µM; IC50 [9]: > 25 µM
28 | 0.11 µM | 148% | Cc1n[nH]c2c1[C@@H](O)[C@H](n1nnc3ccccc31)[C@@H](c1cccc(F)c1Cl)N2 (racemic) | 
29 |  | 137% | Cc1n[nH]c2c1[C@@H](O)[C@H](n1nnc3ccccc31)[C@@H](c1ccccc1)N2 [listing 2 of 2 here] | Emax [1]: 95%
30 |  | inactive | Cc1n[nH]c2c1[C@H](O)[C@@H](n1nnc3ccccc31)[C@H](c1ccccc1Br)N2 | EC50 ([2]; fibroblast): Not Active
31 | 1.9 µM | 158% | Cc1ccccc1[C@H]1Nc2[nH]nc(C)c2[C@@H](O)[C@@H]1n1nnc2ccccc21 (racemic) | Emax [1]: 97%; IC50 ([3]; read-out: IC50): 4.6 µM
32 | 0.14 µM | 140% | Cc1n[nH]c2c1[C@@H](O)[C@H](n1nnc3ccccc31)[C@@H](c1cccc(Cl)c1Cl)N2 (racemic) | 
33 |  | 163% | Cc1n[nH]c2c1[C@@H](O)[C@H](n1nnc3ccccc31)[C@@H](c1ccccc1Cl)N2 [listing 1 of 2 here] | Emax [1]: 85%
34 |  | inactive | O[C@@H]1c2c(-c3ccccc3)n[nH]c2N[C@H](c2ccccc2Cl)[C@H]1n1nnc2ccccc21 (racemic) | EC50 ([2]; fibroblast): Not Active
35 |  | inactive | Cc1n[nH]c2c1[C@H](O)[C@@H](n1nnc3ccccc31)[C@H](c1ccccc1Cl)N2 | Emax [1]: inactive; EC50 ([2]; fibroblast): Not Active; IC50 ([3]; fibroblast): Not Active
36 | 0.57 µM | 151% | O[C@@H]1c2ccncc2N[C@H](c2ccccc2Cl)[C@H]1n1nnc2ccccc21 (racemic) | Emax [1]: 99%; IC50 ([3]; read-out: IC50): 1.8 µM
37 |  | inactive | Cc1n[nH]c2c1[C@H](O)[C@@H](n1nnc3ccccc31)[C@H](c1ccccc1)N2 | Emax [1]: inactive; EC50 ([2]; fibroblast): Not Active; IC50 ([3]; fibroblast): Not Active
38 | 0.97 µM | 137% | Cc1n[nH]c2c1[C@@H](O)[C@H](n1nnc3ccccc31)[C@@H](c1ccccc1F)N2 (racemic) | Emax [1]: 103%; IC50 ([3]; read-out: IC50): 1.8 µM
39 |  | 160% | Cc1n[nH]c2c1[C@@H](O)[C@H](n1nnc3ccccc31)[C@@H](c1ccccc1Cl)N2 (racemic) [listing 1 of 2 here] | 
40 | 3.3 µM | 145% | COc1ccccc1[C@H]1Nc2[nH]nc(C)c2[C@@H](O)[C@@H]1n1nnc2ccccc21 (racemic) | 
41 | 1.1 µM | 158% | Cc1cccc([C@H]2Nc3[nH]nc(C)c3[C@@H](O)[C@@H]2n2nnc3ccccc32)c1 (racemic) | 
42 | 0.47 µM | 160% | Cc1n[nH]c2c1[C@@H](O)[C@H](n1nnc3ccccc31)[C@@H](c1ccccc1C(F)(F)F)N2 (racemic) | Emax [1]: 103%; IC50 ([3]; read-out: IC50): 1.1 µM
43 |  | inactive | COCc1n[nH]c2c1[C@@H](O)[C@H](n1nnc3ccccc31)[C@@H](c1ccccc1)N2 (racemic) | EC50 ([2]; fibroblast): Not Active
44 | > 16 µM | > 239% | O[C@@H]1c2cnccc2N[C@H](c2ccccc2Cl)[C@H]1n1nnc2ccccc21 (racemic) | 
45 | 0.72 µM | 145% | Cc1n[nH]c2c1[C@@H](O)[C@H](n1nnc3ccccc31)[C@@H](c1cc(Cl)ccc1Cl)N2 (racemic) | 
46 |  | 173% | Cc1n[nH]c2c1[C@@H](O)[C@H](n1nnc3ccccc31)[C@@H](c1ccccc1)N2 (racemic) [listing 2 of 2 here] | 
